Reference: US12312293B2, “Branched tail lipid compounds and compositions for intracellular delivery of therapeutic agents” (ModernaTX, Inc., priority 2019, dated 2025)

Assays:
[1] = Characteristics of lipid nanoparticles (size, PDI, encapsulation efficiency); format: physicochemical; conditions: LNP with DSPC, cholesterol, PEG-1 and the compound; for % EE: encapsulation efficiency; for PDI: polydispersity index
From the text: Lipid nanoparticles (e.g., empty LNPs or loaded LNPs) may be characterized by a variety of methods. For example, microscopy (e.g., transmission electron microscopy or scanning electron microscopy) may be used to examine the morphology and size distribution of a nanoparticle composition. Dynamic light scattering or potentiometry (e.g., potentiometric titrations) may be used to measure zeta potentials. Dynamic light scattering may also be utilized to determine particle sizes. Instruments such as the Zetasizer Nano ZS (Malvern Instruments Ltd, Malvern, Worcestershire, UK) may also be used to measure multiple characteristics of a nanoparticle composition, such as particle size, polydispersity index, and zeta potential.
The efficiency of encapsulation of a therapeutic and/or prophylactic describes the amount of therapeutic and/or prophylactic that is encapsulated or otherwise associated with a lipid nanoparticle (e.g., an empty LNP or a loaded LNP) after preparation, relative to the initial amount provided. The encapsulation efficiency is desirably high (e.g., close to 100%). The encapsulation efficiency may be measured, for example, by comparing the amount of therapeutic and/or prophylactic in a solution containing the lipid nanoparticle (e.g., an empty LNP or a loaded LNP) before and after breaking up the lipid nanoparticle (e.g., an empty LNP or a loaded LNP) with one or more organic solvents or detergents. Fluorescence may be used to measure the amount of free therapeutic and/or prophylactic (e.g., RNA) in a solution. For the lipid nanoparticles (e.g., empty LNPs or loaded LNPs) described herein, the encapsulation efficiency of a therapeutic and/or prophylactic may be at least 50%, for example 50%, 55%, 60%, 65%, 70%, 75%, 80%, 85%, 90%, 91%, 92%, 93%, 94%, 95%, 96%, 97%, 98%, 99%, or 100%. In some embodiments, the encapsulation efficiency may be at least 80%. In certain embodiments, the encapsulation efficiency may be at least 90%. In some embodiments, the encapsulation efficiency of the therapeutic and/or prophylactic agent is between 80% and 100%.
Lipid nanoparticles (e.g., empty LNPs or loaded LNPs) including DSPC as a phospholipid, cholesterol as a structural lipid, PEG-1 as a PEG lipid, and a compound according to Formula (1-1), (2-1), (I-a), (A), (B), (A-1), (A-2), (A-3), (IA), (IB), (B-1), (B-2), (B-3), (A-a), (A-a1), (A-a2), (A-a3), (A-b), (A-b1), (A-b2), (A-b3), (A-c), or (B-c) were prepared. Tables 2a and 2b summarize the characteristics of the formulations.

[2] = Residual lipid levels in the liver of mice after LNP administration; format: in vivo; conditions: calculation assumes a 25 g mouse with a 1.5 g liver

Row | Structure (SMILES) | Size (nm) [1] [nm] | % EE [1] [%] | PDI [1] | Approx. Percent Total Dose of Parent Lipid Remaining at 24 h [2] [%]
1 | CCCCCCC(CCCCCC)OC(=O)CCCCCCCN(CCCCCCCC(=O)OCCC(CCCC)CCCC)CCCNc1c(NC)c(=O)c1=O [Compound 60, 3-Butylheptyl 8-((3-((2-(methylamino)-3,4-dioxocyclobut-1-en-1-yl)amino)propyl)(8-oxo-8-(tridecan-7-yloxy)octyl)amino)octanoate] | 60.4 | 98.8 | 0.14 | 
2 | CCCCC(CCCC)OC(=O)CCCCCCCN(CCCCCCCC(=O)OCCC(CCC)CCC)CCCNc1c(NC)c(=O)c1=O [Compound 66, Nonan-5-yl 8-((3-((2-(methylamino)-3,4-dioxocyclobut-1-en-1-yl)amino)propyl)(8-oxo-8-((3-propylhexyl)oxy)octyl)amino)octanoate] | 145.3 | 81.7 | 0.25 | 
3 | CCCCCC(CCCCC)OC(=O)CCCCCCCN(CCCCCCCC(=O)OCCC(CCCC)CCCC)CCCNc1c(NC)c(=O)c1=O [Compound 61, 3-Butylheptyl 8-((3-((2-(methylamino)-3,4-dioxocyclobut-1-en-1-yl)amino)propyl)(8-oxo-8-(undecan-6-yloxy)octyl)amino)octanoate] | 63.5 | 98.1 | 0.09 | 
4 | CCCCC(CCCC)CCOC(=O)CCCCCCCN(CCCCCCCC(=O)OC(CCCC)CCCC)CCCNc1c(NC)c(=O)c1=O [Compound 62, 3-Butylheptyl 8-((3-((2-(methylamino)-3,4-dioxocyclobut-1-en-1-yl)amino)propyl)(8-(nonan-5-yloxy)-8-oxooctyl)amino)octanoate] | 91.0 | 83.0 | 0.17 | 
5 | CCCCC(CCCC)CCOC(=O)CCCCCCCN(CCCCCCCC(=O)OCCC(CCCC)CCCC)CCCNc1c(NC)c(=O)c1=O [Compound 55, Bis(3-butylheptyl) 8,8′-((3-((2-(methylamino)-3,4-dioxocyclobut-1-en-1-yl)amino)propyl)azanediyl)dioctanoate] | 77.0 | 88.9 | 0.25 | 
6 | CCCCCC(CCCCC)OC(=O)CCCCCCCN(CCCCCCCC(=O)OCCC(CCC)CCC)CCCNc1c(NC)c(=O)c1=O [Compound 65, 3-Propylhexyl 8-((3-((2-(methylamino)-3,4-dioxocyclobut-1-en-1-yl)amino)propyl)(8-oxo-8-(undecan-6-yloxy)octyl)amino)octanoate] | 83.1 | 88.6 | 0.17 | 
7 | CCCCCC(CCCCC)CCOC(=O)CCCCCCCN(CCCCCCCC(=O)OC(CCCCC)CCCCC)CCCNc1c(NC)c(=O)c1=O [Compound 57, 3-Pentyloctyl 8-((3-((2-(methylamino)-3,4-dioxocyclobut-1-en-1-yl)amino)propyl)(8-oxo-8-(undecan-6-yloxy)octyl)amino)octanoate] | 69.4 | 90.1 | 0.12 | 
8 | CCCCCC(CCCCC)CCOC(=O)CCCCCCCN(CCCCCCCC(=O)OC(CCCC)CCCC)CCCNc1c(NC)c(=O)c1=O [Compound 58, Nonan-5-yl 8-((3-((2-(methylamino)-3,4-dioxocyclobut-1-en-1-yl)amino)propyl)(8-oxo-8-((3-pentyloctyl)oxy)octyl)amino)octanoate] | 63.9 | 90.1 | 0.12 | 

Results, then the compound that gave them:

Row | Size (nm) [1] [nm] | % EE [1] [%] | PDI [1] | Approx. Percent Total Dose of Parent Lipid Remaining at 24 h [2] [%] | Structure (SMILES)
9 | 73.6 | 89.2 | 0.13 |  | CCCCCCC(CCCCCC)OC(=O)CCCCCCCN(CCCCCCCC(=O)OCCC(CCC)CCC)CCCNc1c(NC)c(=O)c1=O [Compound 64, 3-Propylhexyl 8-((3-((2-(methylamino)-3,4-dioxocyclobut-1-en-1-yl)amino)propyl)(8-oxo-8-(tridecan-7-yloxy)octyl)amino)octanoate]
10 | 106.7 | 84.2 | 0.28 |  | CCCC(CCC)CCOC(=O)CCCCCCCN(CCCCCCCC(=O)OCCC(CCC)CCC)CCCNc1c(NC)c(=O)c1=O [Compound 53, Bis(3-propylhexyl) 8,8′-((3-((2-(methylamino)-3,4-dioxocyclobut-1-en-1-yl)amino)propyl)azanediyl)dioctanoate]
11 | 58.3 | 95.9 | 0.12 |  | CCCCCC(CCCCC)CCOC(=O)CCCCCCCN(CCCCCCCC(=O)OCCC(CCC)CCC)CCCNc1c(NC)c(=O)c1=O [Compound 51, 3-Pentyloctyl 8-((3-((2-(methylamino)-3,4-dioxocyclobut-1-en-1-yl)amino)propyl)(8-oxo-8-((3-propylhexyl)oxy)octyl)amino)octanoate]
12 | 56.2 | 98.1 | 0.15 | 9 ± 3 | CCCCCCCC(CCCCCCC)OC(=O)CCCCCCCN(CCCCCCCC(=O)OCCC(CCC)CCC)CCCNc1c(NC)c(=O)c1=O [Compound 63, Pentadecan-8-yl 8-((3-((2-(methylamino)-3,4-dioxocyclobut-1-en-1-yl)amino)propyl)(8-oxo-8-((3-propylhexyl)oxy)octyl)amino)octanoate]
13 | 70.5 | 84.9 | 0.16 |  | CCCCC(CCCC)CCOC(=O)CCCCCCCN(CCCCCCCC(=O)OCCC(CCC)CCC)CCCNc1c(NC)c(=O)c1=O [Compound 52, 3-Butylheptyl 8-((3-((2-(methylamino)-3,4-dioxocyclobut-1-en-1-yl)amino)propyl)(8-oxo-8-((3-propylhexyl)oxy)octyl)amino)octanoate]
14 | 64.3 | 98.3 | 0.10 |  | CCCCCC(CCCCC)CCOC(=O)CCCCCCCN(CCCCCCCC(=O)OCCC(CCCC)CCCC)CCCNc1c(NC)c(=O)c1=O [Compound 54, 3-Butylheptyl 8-((3-((2-(methylamino)-3,4-dioxocyclobut-1-en-1-yl)amino)propyl)(8-oxo-8-((3-pentyloctyl)oxy)octyl)amino)octanoate]
